Measurements reported in US10369130B2, “Antibacterial compounds” (AZIENDE CHIMICHE RIUNITE ANGELINI FRANCESCO A.C.R.A.F. …, priority 2014, dated 2019).
Counter-ions that a name gives are not always drawn.

How the values were obtained:
Assay type in all cases: biochemical
Settings in all cases: single concentration (200, 100 or 50 μM), in duplicate, versus the positive control (vehicle)
DNA gyrase [1] = target: T1, DNA gyrase (Escherichia coli, UniProt P0AES4+P0AES6); assay: DNA gyrase supercoiling assay (E. coli)
T1 construct: purchased Inspiralis, UK
Method: (§1) The above compounds were tested for the inhibition of the enzyme DNA gyrase in a gyrase supercoiling assay and for the inhibition of the enzyme topoisomerase IV in a decatenation assay, in both Gram positive and Gram negative bacteria, according to the following methods.
(§2) Both the assays were carried out according to a set-up method modified from the article to Blanche F, et al. “Differential Behaviors of Staphylococcus aureus and Escherichia coli Type II DNA Topoisomerases”, Antimicrob.
(§3) The compounds were screened at single concentration (200, 100 or 50 μM), in duplicate.
(§4) Ciprofloxacin and novobiocin were used as reference compounds, at single concentration of 200 and 50 μM, respectively.
(§5) DNA Gyrase Supercoiling Assay.
(§6) Reagents from S. aureus and E. coli Gyrase Supercoiling Assay kits (Inspiralis, UK) were used. A master mix with a total volume sufficient for the number of reactions to perform was prepared with the following reagents: 5× assay buffer, relaxed pBR322 substrate (0.5 μg/reaction), RNase-DNase free water. Aliquotes of this mix were dispensed in each tube, then 10× compound stock solutions or vehicle control (DMSO), were added to each reaction tube.
(§7) Reaction was started with E. Coli (2 U/reaction) or S. aureus (1 U/reaction) gyrase enzyme addition.
(§8) A sample added with an equal volume of dilution buffer was used as negative control (without enzyme).
(§9) The reaction tubes were gentle vortexed and incubated 30 minutes at 37° C. Each reaction was stopped by adding 30 μl of Stop Buffer and 30 μl chloroform/isoamyl alcohol (24/1), briefly vortexed for 5-10 seconds and centrifuged at 20000×g for 2 minutes. Samples were loaded onto 1% agarose gel and subjected to electrophoresis for 1 hour at 80V constant voltage in TAE (40 mM Tris-acetate, 2 mM EDTA).
(§10) Data acquisition and analysis. Treatment of relaxed pBR322 with DNA gyrase converted the relaxed topoisomers (DNAs of different linking number) to the supercoiled form of the plasmid, which migrates faster on an agarose gel. An upper band might also be visible, which consists of open-circular (nicked) DNA which is present in the relaxed substrate but co-migrates with some of the relaxed topoisomers.
(§11) Bands were visualized by ethidium bromide staining (dil 1:20000) for 30 minutes followed by destaining in distilled water for 10 minutes.
(§12) In order to evaluate the compounds activity on the enzyme, the bands of supercoiled DNAs in the gel were photographed by a digital imaging system ImageQuant LAS 4000 (GE Healthcare) according to manufacturer's instructions.
(§13) The fluorescent intensity of each band was analysed by ImageQuant TL software and it was expressed as volume (volume of the uncalibrated quantity of material in the image feature after subtraction of the background intensity by using rolling ball method).
(§14) Each band intensity was compared, as percentage, to vehicle sample band intensity, which served as positive control, on the same gel.
(§15) Inhibitory activity was expressed as percent of inhibition versus the positive control.

Topoisomerase IV [2] = target: T2, Topoisomerase IV (Escherichia coli, UniProt P0AFI2+P20083); assay: Topoisomerase IV decatenation assay (E. coli)
T2 construct: purchased Inspiralis, UK
Method: as §1, §2, §3, §4
(§16) Topoisomerase IV Decatenation Assay
(§17) S. aureus and E. coli Topoisomerase IV decatenation kits (Inspiralis, UK) were used. A master mix with a total volume sufficient for the number of reactions to perform was prepared with the following reagents: 5× assay buffer (50 mM HEPES-KOH (pH 7.6), 100 mM potassium glutamate, 10 mM magnesium acetate, 10 mM DTT, 1 mM ATP, 50 μg/ml albumin), kDNA substrate (200 ng/reaction), RNase-DNase free water. Aliquots of this mix were dispensed in each tube, then 10× compound stock solutions or vehicle control (DMSO), were added in each reaction tube.
(§18) Reaction was started with Topoisomerase IV enzyme (0.5 U/reaction) addition.
as §8
(§19) The reaction tubes were gentle vortexed and incubated 30 minutes at 37° C. Each reaction was stopped by adding 30 μl of Stop Buffer and 30 μl of chloroform/isoamyl alcohol (24/1), briefly vortexed for 5-10 seconds and centrifuged at 20000×g for 2 minutes. Samples taken from the upper phase were loaded into 1% agarose gel and subjected to electrophoresis for 1 hour at 80V constant voltage in TAE (40 mM Tris-acetate, 2 mM EDTA).
(§20) Data acquisition and analysis. Due to the high molecular mass, kDNA could not enter an agarose gel under normal electrophoresis conditions, but remained in the wells. In the presence of Topo IV topoisomerase mini-circles (2.5 Kb) were released from kDNA by decatenation and were quickly and easily resolved in the gel at relatively high voltages.
as §11
(§21) For single concentration screening assay, in order to evaluate the compounds activity on the enzymes, the bands of decatenated DNAs in the gel were photographed by a digital imaging system ImageQuant LAS 4000 (GE Healthcare) according to manufacturer's instructions.
(§22) The fluorescent intensity of each band was analyzed by ImageQuant TL software and it was expressed as volume (volume of the uncalibrated quantity of material in the image feature after subtraction of the background intensity by using rolling ball method).
as §14, §15

DNA gyrase [3] = target: T3, DNA gyrase (Staphylococcus aureus, UniProt P0A0K8+P20831); assay: DNA gyrase supercoiling assay (S. aureus)
T3 construct: purchased Inspiralis, UK
Method: as §1, §2, §3, §4, §5, §6, §7, §8, §9, §10, §11, §12, §13, §14, §15

Topoisomerase IV [4] = target: T4, Topoisomerase IV (Staphylococcus aureus, UniProt P0C1S7+P0C1U9); assay: Topoisomerase IV decatenation assay (S. aureus)
T4 construct: purchased Inspiralis, UK
Method: as §1, §2, §3, §4, §16, §17, §18, §8, §19, §20, §11, §21, §22, §14, §15

T2 sequence (P20083 whole entry): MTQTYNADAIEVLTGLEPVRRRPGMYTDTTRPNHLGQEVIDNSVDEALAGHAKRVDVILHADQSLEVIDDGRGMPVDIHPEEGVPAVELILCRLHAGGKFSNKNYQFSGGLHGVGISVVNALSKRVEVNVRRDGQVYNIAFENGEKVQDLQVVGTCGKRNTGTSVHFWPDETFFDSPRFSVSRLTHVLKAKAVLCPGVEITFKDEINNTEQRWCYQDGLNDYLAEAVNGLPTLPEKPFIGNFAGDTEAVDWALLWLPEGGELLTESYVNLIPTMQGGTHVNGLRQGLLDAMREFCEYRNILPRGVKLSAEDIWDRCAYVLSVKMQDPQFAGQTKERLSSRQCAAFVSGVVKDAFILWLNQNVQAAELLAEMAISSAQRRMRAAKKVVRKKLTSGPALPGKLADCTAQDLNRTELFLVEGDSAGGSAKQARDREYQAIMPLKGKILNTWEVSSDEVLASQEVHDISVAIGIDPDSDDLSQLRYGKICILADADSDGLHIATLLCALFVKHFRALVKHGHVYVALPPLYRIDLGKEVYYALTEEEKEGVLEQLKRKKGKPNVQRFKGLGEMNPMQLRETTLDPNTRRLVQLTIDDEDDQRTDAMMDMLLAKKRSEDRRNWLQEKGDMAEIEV
T2 sequence (P0AFI2 whole entry): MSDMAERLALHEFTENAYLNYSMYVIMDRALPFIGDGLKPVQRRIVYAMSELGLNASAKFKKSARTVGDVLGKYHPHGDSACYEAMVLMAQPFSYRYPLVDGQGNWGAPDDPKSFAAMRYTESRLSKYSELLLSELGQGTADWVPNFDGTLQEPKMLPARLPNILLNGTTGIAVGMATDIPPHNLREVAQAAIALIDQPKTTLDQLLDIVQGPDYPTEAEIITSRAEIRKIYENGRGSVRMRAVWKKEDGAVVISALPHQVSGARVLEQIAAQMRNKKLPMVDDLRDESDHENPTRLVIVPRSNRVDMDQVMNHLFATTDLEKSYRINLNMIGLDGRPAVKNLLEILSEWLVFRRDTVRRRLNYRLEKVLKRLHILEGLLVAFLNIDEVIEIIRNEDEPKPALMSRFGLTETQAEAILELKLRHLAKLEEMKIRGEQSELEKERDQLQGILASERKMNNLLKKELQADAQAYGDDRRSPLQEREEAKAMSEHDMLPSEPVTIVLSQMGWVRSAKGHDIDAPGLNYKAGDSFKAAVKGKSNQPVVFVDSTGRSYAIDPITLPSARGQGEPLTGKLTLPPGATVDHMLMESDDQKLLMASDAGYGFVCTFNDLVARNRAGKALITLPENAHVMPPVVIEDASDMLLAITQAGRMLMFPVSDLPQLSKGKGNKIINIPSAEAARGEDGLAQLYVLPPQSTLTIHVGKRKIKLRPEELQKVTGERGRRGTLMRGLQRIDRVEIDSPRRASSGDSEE
T3 sequence (P20831 whole entry): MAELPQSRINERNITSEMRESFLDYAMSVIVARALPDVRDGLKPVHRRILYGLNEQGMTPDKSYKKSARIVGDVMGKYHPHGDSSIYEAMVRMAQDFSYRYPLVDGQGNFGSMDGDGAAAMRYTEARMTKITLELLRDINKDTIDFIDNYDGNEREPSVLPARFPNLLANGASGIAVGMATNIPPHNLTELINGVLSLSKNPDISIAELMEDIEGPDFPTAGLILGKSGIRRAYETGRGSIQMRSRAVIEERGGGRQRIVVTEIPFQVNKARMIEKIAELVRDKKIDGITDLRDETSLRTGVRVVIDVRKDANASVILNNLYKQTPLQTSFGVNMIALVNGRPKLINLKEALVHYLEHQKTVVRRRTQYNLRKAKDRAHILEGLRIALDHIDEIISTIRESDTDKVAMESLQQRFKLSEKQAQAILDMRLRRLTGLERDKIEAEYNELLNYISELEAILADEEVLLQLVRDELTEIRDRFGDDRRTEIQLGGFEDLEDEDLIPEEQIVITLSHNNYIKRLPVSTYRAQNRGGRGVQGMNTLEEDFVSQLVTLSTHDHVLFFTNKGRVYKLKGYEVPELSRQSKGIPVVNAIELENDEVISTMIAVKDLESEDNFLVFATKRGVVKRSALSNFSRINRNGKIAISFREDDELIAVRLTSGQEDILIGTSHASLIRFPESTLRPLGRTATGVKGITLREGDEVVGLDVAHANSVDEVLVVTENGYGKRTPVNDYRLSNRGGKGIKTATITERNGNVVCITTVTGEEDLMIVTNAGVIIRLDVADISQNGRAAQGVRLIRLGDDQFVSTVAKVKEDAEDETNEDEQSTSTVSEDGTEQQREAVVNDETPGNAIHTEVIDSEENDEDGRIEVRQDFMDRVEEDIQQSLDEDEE
T3 sequence (P0A0K8 whole entry): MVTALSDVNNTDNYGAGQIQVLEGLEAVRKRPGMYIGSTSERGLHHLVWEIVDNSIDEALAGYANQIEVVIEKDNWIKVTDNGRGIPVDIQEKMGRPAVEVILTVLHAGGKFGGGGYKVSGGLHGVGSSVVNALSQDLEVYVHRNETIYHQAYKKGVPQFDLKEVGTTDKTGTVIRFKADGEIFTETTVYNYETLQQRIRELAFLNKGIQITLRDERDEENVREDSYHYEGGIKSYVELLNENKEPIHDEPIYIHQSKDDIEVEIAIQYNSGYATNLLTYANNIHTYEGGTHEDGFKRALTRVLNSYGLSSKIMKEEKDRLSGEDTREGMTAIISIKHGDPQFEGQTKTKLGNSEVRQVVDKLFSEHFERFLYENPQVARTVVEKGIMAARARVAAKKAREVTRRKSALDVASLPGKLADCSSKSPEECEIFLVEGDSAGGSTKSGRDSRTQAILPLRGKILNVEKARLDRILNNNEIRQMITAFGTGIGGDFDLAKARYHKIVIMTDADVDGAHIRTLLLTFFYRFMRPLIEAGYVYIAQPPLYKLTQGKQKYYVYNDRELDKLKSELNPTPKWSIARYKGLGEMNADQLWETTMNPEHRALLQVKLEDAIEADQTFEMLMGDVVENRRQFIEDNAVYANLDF
T4 sequence (P0C1S7 whole entry): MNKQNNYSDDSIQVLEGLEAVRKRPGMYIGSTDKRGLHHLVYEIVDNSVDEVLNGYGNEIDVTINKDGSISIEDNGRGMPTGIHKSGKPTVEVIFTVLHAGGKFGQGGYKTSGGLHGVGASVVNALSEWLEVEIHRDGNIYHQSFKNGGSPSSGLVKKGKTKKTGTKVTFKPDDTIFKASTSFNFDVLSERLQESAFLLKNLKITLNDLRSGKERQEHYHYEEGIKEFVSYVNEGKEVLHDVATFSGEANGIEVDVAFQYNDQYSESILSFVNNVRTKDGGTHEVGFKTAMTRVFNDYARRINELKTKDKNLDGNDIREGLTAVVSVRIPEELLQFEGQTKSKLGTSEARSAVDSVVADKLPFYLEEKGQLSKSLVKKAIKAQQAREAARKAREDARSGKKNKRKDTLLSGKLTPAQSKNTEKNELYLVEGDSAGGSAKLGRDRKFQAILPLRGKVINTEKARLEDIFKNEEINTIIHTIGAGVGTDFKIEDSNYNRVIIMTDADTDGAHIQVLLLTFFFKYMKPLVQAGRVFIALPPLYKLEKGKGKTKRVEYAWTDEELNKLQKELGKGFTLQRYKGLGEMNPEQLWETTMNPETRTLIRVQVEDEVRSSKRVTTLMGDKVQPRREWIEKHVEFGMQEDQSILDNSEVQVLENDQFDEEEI
T4 sequence (P0C1U9 whole entry): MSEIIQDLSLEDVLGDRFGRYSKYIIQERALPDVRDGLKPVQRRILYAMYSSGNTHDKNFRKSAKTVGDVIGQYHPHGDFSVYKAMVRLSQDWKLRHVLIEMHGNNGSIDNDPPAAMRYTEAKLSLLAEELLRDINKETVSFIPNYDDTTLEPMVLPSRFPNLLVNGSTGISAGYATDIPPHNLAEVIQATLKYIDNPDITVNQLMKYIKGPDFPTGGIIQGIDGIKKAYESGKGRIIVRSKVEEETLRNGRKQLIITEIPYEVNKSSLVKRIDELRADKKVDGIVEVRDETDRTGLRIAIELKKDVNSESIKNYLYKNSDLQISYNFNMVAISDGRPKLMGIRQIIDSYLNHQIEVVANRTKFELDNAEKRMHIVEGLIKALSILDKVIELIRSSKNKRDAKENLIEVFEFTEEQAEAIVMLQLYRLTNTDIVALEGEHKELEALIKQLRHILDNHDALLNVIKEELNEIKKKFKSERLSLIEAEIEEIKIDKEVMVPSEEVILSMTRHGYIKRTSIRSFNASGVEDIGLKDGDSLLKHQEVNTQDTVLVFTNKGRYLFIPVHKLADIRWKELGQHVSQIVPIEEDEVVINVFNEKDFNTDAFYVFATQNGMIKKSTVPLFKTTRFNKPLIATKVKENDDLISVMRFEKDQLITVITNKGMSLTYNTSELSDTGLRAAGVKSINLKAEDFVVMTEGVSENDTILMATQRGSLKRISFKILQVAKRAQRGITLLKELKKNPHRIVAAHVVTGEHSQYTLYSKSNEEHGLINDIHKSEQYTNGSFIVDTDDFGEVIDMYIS

| Compound | % inhibition DNA gyrase (DNA gyrase [1]) | % inhibition Topo IV (Topoisomerase IV [2]) | % inhibition DNA gyrase (DNA gyrase [3]) | % inhibition Topo IV (Topoisomerase IV [4]) |
| --- | --- | --- | --- | --- |
| O=C(NCCCN1CCN(c2nccc3ccccc23)CC1)c1cc(F)ccc1F [Compound 39, 2,5-difluoro-N-{3-[4-(isoquinolin-1-yl)piperazin-1-yl]propyl}benzamide hydrochloride] | 50% | n/a (n/a = not active) | 74% | n/a (n/a = not active) |
| O=c1cc(N2CCN(CCCNc3cc(=O)oc4ccccc34)CC2)c2ccccc2[nH]1 [Compound 68, 4-(4-{3-[(2-oxo-2H-chromen-4-yl)amino]propyl}piperazin-1-yl)quinolin-2(1H)-one hydrochloride] | 100% | n/a (n/a = not active) | n/a (n/a = not active) | n/a (n/a = not active) |
| O=c1cc(NC[C@@H](O)[C@@H](O)C2CCN(c3nccc4ccc(F)cc34)CC2)c2ccccc2o1 (racemic) [Compound 129, (2R,3S) and (2S,3R) 4-({3-[1-(7-fluoroisoquinolin-1-yl)piperidin-4-yl]-2,3-dihydroxypropyl}amino)-2H-chromen-2-one hydrochloride] | 69% | n/a (n/a = not active) | n/a (n/a = not active) | n/a (n/a = not active) |
| O=c1cc(NCCCN2CCN(c3nccc4ccccc34)CC2CC(F)(F)F)c2ccccc2o1 (stereo not drawn) [Compound 83, 4-({3-[4-(isoquinolin-1-yl)-2-(2,2,2-trifluoroethyl)piperazin-1-yl]propyl}amino)-2H-chromen-2-one hydrochloride] | 69% | n/a (n/a = not active) | n/a (n/a = not active) | n/a (n/a = not active) |
| Cc1ccc2c(N3CCN(CCCNC(=O)c4cccnc4)CC3)nccc2c1 [Compound 35, N-{3-[4-(6-methylisoquinolin-1-yl)piperazin-1-yl]propyl}pyridine-3-carboxamide] | n/a (n/a = not active) | n/a (n/a = not active) | 78% | n/a (n/a = not active) |
| O=C(O)C[C@@H](NC[C@H](O)CN1CCN(c2nccc3ccc(F)cc23)CC1)c1ccccc1 [Compound 142, (3R)-3-({(2S)-3-[4-(7-fluoroisoquinolin-1-yl)piperazin-1-yl]-2-hydroxypropyl}amino)-3-phenylpropanoic acid] | n/a (n/a = not active) | n/a (n/a = not active) | 52% | n/a (n/a = not active) |
| O=c1cc(NC2CCCC(N3CCN(c4nccc5ccccc45)CC3)C2)c2ccccc2o1 (stereo not drawn) [Compound 74, 4-({3-[4-(isoquinolin-1-yl)piperazin-1-yl]cyclohexyl}amino)-2H-chromen-2-one hydrochloride] | 65% | n/a (n/a = not active) | 61% | n/a (n/a = not active) |
| O=c1cc(NCCCN2CCN(c3cccc4ccccc34)CC2)c2ccccc2o1 [Compound 50, 4-({3-[4-(naphthalen-1-yl)piperazin-1-yl]propyl}amino)-2H-chromen-2-one hydrochloride] | 92% | n/a (n/a = not active) | n/a (n/a = not active) | n/a (n/a = not active) |
| O=C(NCCCN1CCN(c2nccc3ccccc23)CC1)c1cnc2ccoc2c1 [Compound 31, N-{3-[4-(isoquinolin-1-yl)piperazin-1-yl]propyl}furo[3,2-b]pyridine-6-carboxamide hydrochloride] | n/a (n/a = not active) | n/a (n/a = not active) | 65% | n/a (n/a = not active) |
| O=C(NCCCN1CCN(c2nccc3ccccc23)CC1)c1ccccc1 [Compound 3, N-{3-[4-(isoquinolin-1-yl)piperazin-1-yl]propyl}benzamide hydrochloride] | 59% | n/a (n/a = not active) | n/a (n/a = not active) | n/a (n/a = not active) |
| COc1ccc2c(NCCCN3CCN(c4nccc5ccccc45)CC3)cc(=O)oc2c1 [Compound 85, 4-({3-[4-(isoquinolin-1-yl)piperazin-1-yl]propyl}amino)-7-methoxy-2H-chromen-2-one hydrochloride] | 78% | n/a (n/a = not active) | 86% | n/a (n/a = not active) |
| Cc1c(NCCCN2CCN(c3nccc4ccc(F)cc34)CC2)c2ccccc2oc1=O [Compound 97, 4-({3-[4-(7-fluoroisoquinolin-1-yl)piperazin-1-yl]propyl}amino)-3-methyl-2H-chromen-2-one hydrochloride] | 85% | n/a (n/a = not active) | 86% | n/a (n/a = not active) |
| O=c1cc(NCCCN2CCN(c3nccc4ccc(F)cc34)CC2)c2c(o1)CCNC2 [Compound 122, 4-({3-[4-(7-fluoroisoquinolin-1-yl)piperazin-1-yl]propyl}amino)-5,6,7,8-tetrahydro-2H-pyrano[3,2-c]pyridin-2-one hydrochloride] | 58% | n/a (n/a = not active) | n/a (n/a = not active) | n/a (n/a = not active) |
| O=C(CN1CCC(Nc2cc(=O)oc3ccccc23)CC1)NCc1nccc2ccccc12 [Compound 118, N-(isoquinolin-1-ylmethyl)-2-{4-[(2-oxo-2H-chromen-4-yl)amino]piperidin-1-yl}acetamide] | 78% | n/a (n/a = not active) | n/a (n/a = not active) | n/a (n/a = not active) |
| O=C(O)CC(NCCNC1CCN(c2nccc3ccc(F)cc23)CC1)C1CCCCC1 (stereo not drawn) [Compound 190, lithium 3-cyclohexyl-3-[(2-{[1-(7-fluoroisoquinolin-1-yl)piperidin-4-yl]amino}ethyl)amino]propanoate] | 61% | n/a (n/a = not active) | 73% | n/a (n/a = not active) |
